Results: patent US20110230423A1, “THERAPY AND MEDICAMENT USING INTEGRIN LIGANDS FOR TREATING CANCER” (priority 2008, published 2011)

How the values were obtained:
[1] = test system: U251 human glioblastoma cells; assay: Rat orthotopic glioblastoma model radiotherapy, cilengitide scheduling experiments; format: in vivo, NIH rnu nude rats; conditions: individual animals
Procedure: NIH rnu nude rats are anaesthetized, restrained, and injected intracerebrally 1 mm retro orbitally, 3 mm to the right of the bregma and at a depth of 2.5 mm with 5×10E5 U251 human glioblastoma cells suspended in 10 ul of culture medium, using a #2701 Hamilton syringe fitted with a 26 gauge needle, essentially as previously described (Engebraaten et al., 1999). After 14 days, cilengitide (4 mg/kg) is given as an intraperitoneal bolus in PBS, at various time (8 h, 4 h, 2 h, 1 h) prior to a single treatment with single, collimated, dorsal-ventral beam of 6 MV x-rays, so that 95-100% of the central axis dose of 25 Gy hit the tumor volume (Kim et al., 1999). Each of the 7 subsequent days the animals also received an identical i.p. bolus of cilengitide. The animals are maintained under ad libitum food and drink until they become moribund, or are sampled for tissue analysis (in the t-4 and t-8 h groups, where the animals are healthy past 230 days post tumor injection). A Kaplan-Meier survival curve is calculated and plotted (FIG. 1) from the raw data (Table 1). All animals in the RT monotherapy group died by 120 d.

[2] = test system: newly diagnosed glioblastoma (GBM); assay: Phase I/IIa trial of cilengitide and temozolomide with concomitant radiotherapy, followed by maintenance, in newly diagnosed glioblastoma; format: in vivo, human
Procedure: Purpose: To evaluate safety, toxicity, and efficacy of the combination of the cyclic RGD pentapeptide Cilengitide (=cyclo-(Arg-Gly-Asp-DPhe-NMe-Val)), an inhibitor of integrins avβ3 and avβ5, in addition to standard temozolomide (TMZ) and radiotherapy (RT).
Patients and methods: Fifty-two pts (PS 0-1: 92%, 2: 8%; median age 57 yrs) after biopsy (n=9/17%) or tumor resection (n=43/83%) were treated with standard TMZ/RT (Stupp et al. NEJM 2005). In addition Cilengitide (500 mg i.v., 2×/week) was started one week before TMZ/RT and given throughout for the duration of chemotherapy or until progression. Primary endpoint was progression free survival rate at 6 months (target: 65%). Patients were followed with MRI every 2 months. Histopathologic diagnosis and MRI imaging were independently reviewed, MGMT promoter methylation status was assessed in 45 (86.5%) pts.

brain metastases = conditions: hypofractionation approach with or without the radiosensitizer; cited from earlier work

Row | Structure (SMILES) | Days Post Implant ([1]; cilengitide 4 mg/kg i.p. 4 hours pre-irradiation (Rt 25 Gy) plus 7 subsequent daily boluses) | Days Post Implant ([1]; cilengitide 4 mg/kg i.p. 8 hours pre-irradiation (Rt 25 Gy) plus 7 subsequent daily boluses) | Treatment related non-hematologic grade 3 toxicities (patients) ([2]; Cilengitide 500 mg i.v. 2x/week plus standard TMZ/RT, n=3/52) | Tolerability of the combination ([2]; Cilengitide and TMZ/RT) | sigmoid perforation (grade 2), patients ([2]; patient with a history of sigmoid diverticulosis) | median survival (brain metastases)
1 | CC(C)[C@H]1C(=O)N[C@@H](CCCN=C(N)N)C(=O)NCC(=O)N[C@@H](CC(=O)O)C(=O)N[C@H](Cc2ccccc2)C(=O)N1C [Cilengitide, cyclo-(Arg-Gly-Asp-DPhe-NMeVal)] | > 230 days | > 230 days | 5.7% | well tolerated | One | 
2 | COCC(O)Cn1ccnc1[N+](=O)[O-] (stereo not drawn) [misonidazol] |  |  |  |  |  | ≤ 3.9 months
